Results: ChEMBL document CHEMBL4819087, “Identification and optimization of 3-bromo-N'-(4-hydroxybenzylidene)-4-methylbenzohydrazide derivatives as mTOR inhibitors that induce autophagic cell death and apoptosis in triple-negative breast cancer” (Eur J Med Chem, 2021)
Activity calls are given as the source filed them. The rule behind the calls is not given here.

Key:
[1] = target: Serine/threonine-protein kinase mTOR (Homo sapiens, UniProt P42345); assay: Inhibition of mTOR in human MDA-MB-468 cells assessed as reduction in total 4EBP1 protein level at 0.5 to 2 uM after 24 hrs by Western blot analysis; assay type: cell-based; settings: dose 0.5-2 µM
MDA-MB-468 = assay: Induction of apoptosis in human MDA-MB-468 cells assessed as early apoptic cells at 2.5 uM after 24 hrs by AnnexinV-FITC/PI staining based flow cytometry analysis (reference value: 0.51%); assay type: functional
MDA-MB-231 [2] = assay: Inhibition of colony formation in human MDA-MB-231 cells measured after 14 days by crystal violet staining based assay; assay type: functional, cell-based; settings: dose 5-10 µM, time 14.0 day
MDA-MB-231 [3] = assay: Induction of apoptosis in human MDA-MB-231 cells assessed as necrotic cells at 5 uM after 24 hrs by AnnexinV-FITC/PI staining based flow cytometry analysis (reference value: 0.083%); assay type: functional

inhibition [1]: Active
Structure (SMILES): C/C(=N\NC(=O)c1cccc(Br)c1)c1ccc(C(=O)Nc2nc3ccccc3[nH]2)cc1
Activity (MDA-MB-468): 3.35% | inhibition (MDA-MB-231 [2]): Dose-Dependent Effect | Activity (MDA-MB-231 [3]): 0.099%
